Reference: PMC13194685 (Cell Death & Disease, 2026)

How the values were obtained:
JNK2-STX1A interaction = target: T1, JNK2-STX1A interaction (Mus musculus, UniProt Q9WTU6); experiment: evONC model: JNK2-STX1A co-localization (Pearson's analysis); assay type: in vivo, C57BL/6J mice; conditions: evONC T24; JGRi1 50, 250, 500 μM, sJGRi1 500 μM; one drop daily for 6 days; n = 5
T1 construct: from tissue; host or cells: retinal cryosections of C57BL/6J mice
Method: (§1) Animals were then euthanized via beheading.
(§2) Fluorescence intensity was quantified by using ImageJ software.
(§3) Co-localization between fluorescent signals in acquired images was expressed using Pearson’s score, which describes the correlation of the intensity distribution between two distinct fluorescent signals. The analysis was carried out using the “JACOP” plug-in available for the ImageJ software. At least 10 different fields per condition were utilized for the quantification.

JNK2 [1] = experiment: evONC model: JNK2 expression (immunofluorescence, immunoblot); assay type: in vivo, C57BL/6J mice; conditions: evONC T24; 500 μM eye drops (JGRi1 or sJGRi1), one drop daily for 6 days; n = 5
From the text: as §1
(§4) Western blots were quantified by densitometry using ImageJ software.
as §2

[2] = test system: retinal ganglion cells (RGCs); experiment: NMDA injection model: RGC viability, apoptosis, cytoarchitecture, CTB-488 transport; assay type: in vivo, C57BL/6J mice
JNK2 [3] = experiment: NMDA injection model: JNK2 immunofluorescence; assay type: in vivo, C57BL/6J mice; conditions: intravitreal NMDA; eye drops 250 μM daily; n = 4
From the text: as §2

SNARE complex = experiment: evONC model: SNARE complex assay (native PAGE); assay type: in vivo, C57BL/6J mice; conditions: evONC T24; JGRi1 50, 250, 500 μM, sJGRi1 500 μM; one drop daily for 6 days; n = 6
Method: as §1
The modulation SNARE complex assembly by JGRi1 was evaluated via native PAGE. Briefly, samples were loaded using a non-denaturizing loading buffer (0.5 M Tris-HCl, pH 6.8, 15% v/v glycerol, and 1% v/v bromophenol blue). Samples were then left non-boiled to preserve protein-protein interaction, separated onto polyacrylamide gels, and then blotted onto nitrocellulose membranes. The immunoreactive bands were identified by using an antibody against STX1A, which is a core component of SNARE complexes. Bands starting from approximately 66 kDa were quantified as an indicator of the SNARE complex assembly upon treatment. β-tubulin was used as the loading control for quantification.

STX1A = conditions: evONC T24; JGRi1 50, 250, 500 μM, sJGRi1 500 μM; one drop daily for 6 days; n = 5
Method: Mice were either left untreated or treated for 6 days with a single drop per day of JGRi1 dissolved into a balanced saline solution (BSS) buffer at different concentrations (50 μM, 250 μM, 500 μM). A total volume of 5 μL of JGRi1 solution was applied directly onto the cornea. Treated animals were kept immobilized and under observation for 1 minute to ensure proper peptide penetration within the eye. Animals were then euthanized via beheading. A scrambled version of the peptide (sJGRi1) at a concentration of 500 μM was included as a control. Subsequently, the optic nerve was cut, and the eyes were harvested according to our previously established protocol [25, 26]. The extracted eyes were kept in phosphate-buffered salt (PBS; Capricorn Scientifics, Germany) at 4 °C for 24 hours, then the retinas were dissected and processed accordingly.
Retinal cryosections were permeabilized using 0.5% Tryton-X (Merck, Germany) in PBS (Capricorn Scientifics, Germany) solution for 5 minutes. Then, blocked (0.1 M glycine, 2% w/v bovine serum albumin, 2% v/v fetal calf serum, 0.1% v/v Tryton-X) for 1 hour to avoid non-specific protein interactions. The primary antibody was diluted in the same blocking solution and held overnight at 4 °C. […] Fluorescence intensity was quantified by using ImageJ software.

L-glutamate = experiment: NMDA injection model: retinal and synaptic glutamate immunoreactivity; assay type: in vivo, C57BL/6J mice; conditions: intravitreal NMDA; eye drops 250 μM daily from one day prior to NMDA through follow-up; n = 3
Method: as §2, §3

[4] = test system: A2 amacrine cells and rod bipolar cells (PROX1-positive); experiment: evONC model: PROX1-positive cells in the INL; assay type: in vivo, C57BL/6J mice; conditions: evONC T24; JGRi1 50, 250, 500 μM, sJGRi1 500 μM; one drop daily for 6 days; n = 3
From the text: as §1, §2

microglia (IBA1) = experiment: NMDA injection model: microglial infiltration (IBA1 immunofluorescence); assay type: in vivo, C57BL/6J mice; conditions: intravitreal NMDA; eye drops 250 μM daily; n = 5
From the text: as §2

[5] = test system: retinal ganglion cells (RGCs); experiment: Ex vivo optic nerve cut (evONC) model: RGC viability, apoptosis, retinal cytoarchitecture; assay type: in vivo, C57BL/6J mice; conditions: evONC T24, JGRi1 50, 250, 500 μM, sJGRi1 500 μM, n = 4
Method: as §1, §4
The enucleated eyes were fixed in 4% paraformaldehyde solution overnight at 4 °C. Then, they were incubated in a 30% sucrose-in-PBS solution overnight, and finally, they were embedded in an optimal cutting temperature (OCT, Sigma, St. Louis, MO, USA) compound. Eyes were cut at a thickness of 20 μm. For reliability, the sections containing the optic nerve were utilized, and in each eye, at least five discontinuous sections were analyzed. For histological examination, cryosections were stained in Mayer’s Hematoxylin Solution (Merck, Germany), rinsed in tap water, then counterstained using Eosin Y alcoholic solution (Merck, Germany). Sections were mounted on coverslips with Eukitt (Merck, Germany), and observed under a light-transmission microscope (Nikon) with 40X magnification.
as §2

Q: How did the “JNK2-STX1A co-localization (co-immunofluorescence, Pearson's analysis)” value (JNK2-STX1A interaction) turn out when RISEQLSNIEEGQE [sJGRi1, control] was run?
A: The value was “produced an even more marked co-localization between JNK2 and STX1A”.

Q: And the “JNK2 immunoreactivity (immunofluorescence)” value (JNK2 [1])?
A: The value was “does not have any effect on JNK2 nor STX1A expression at T24”.

Q: What about the “RBPMS-positive cells (immunofluorescence), RGC viability” value ([2]; intravitreal NMDA 250 μM, 2 μL, eye drops 250 μM, 4 µL daily, from 24 hours prior to NMDA through the 4-week study period, n = 4) of the same sequence?
A: Its value is “had no effect on either RGC viability or apoptosis”.

Q: What about the “retinal cytoarchitecture (hematoxylin/Eosin staining)” value ([2]; intravitreal NMDA, eye drops 250 μM daily from one day prior to NMDA through follow-up, n = 3) of the same sequence?
A: Its value is “failed to do so”.

Q: What about the “c-CASP3 immunoreactivity / c-CASP3-positive cells, apoptosis” value ([2]; intravitreal NMDA, eye drops 250 μM daily from one day prior to NMDA through follow-up, n = 4) of the same sequence?
A: The value was “had no effect on either RGC viability or apoptosis”.

Q: What about the “uptake and transport of the neural tracer CTB-488 in RGCs (mean fluorescence intensity)” value ([2]; intravitreal NMDA, eye drops 250 μM daily, CTB-488 1 µL intravitreal before sacrifice, n = 5) of the same sequence?
A: The value was “diminished CTB uptake and transport in RGCs”.

Q: What about the “JNK2 immunoreactivity (immunofluorescence)” value (JNK2 [3]) of the same sequence?
A: Its value is “did not prevent the NMDA-induced increase in JNK2 expression in the inner retina”.

Q: And the “SNARE complex formation (STX1A signal from about 66 kDa, non-boiled samples, vs β-TUB)” value (SNARE complex)?
A: The value was “did not produce any effect on SNARE complex formation”.

Q: What about the “STX1A level (immunofluorescence)” value (STX1A) of the same sequence?
A: Its value is “does not have any effect on JNK2 nor STX1A expression at T24”.

Q: And the “L-glutamate immunofluorescence in retinal tissue” value (L-glutamate)?
A: Its value is “had no effect”.

Q: What about the “number of PROX1-positive cells in the INL” value [4] of the same sequence?
A: Its value is “did not produce any protective effect on PROX1-positive cell number”.

Q: And the “IBA1 immunoreactivity (microglial infiltration)” value (microglia (IBA1))?
A: The value was “no reduction was seen upon treatment with sJGRi1”.

Q: What about the “RBPMS-positive cells in the GCL (immunofluorescence), RGC viability” value ([5]; one drop daily for 6 days before evONC) of the same sequence?
A: The value was “failed to rescue RGC viability upon evONC”.

Q: What about the “RBPMS expression (immunoblot, densitometry vs β-TUB)” value ([5]; one drop daily for 6 days) of the same sequence?
A: Its value is “did not produce any protective effect on RGC viability in comparison to the active peptide”.
